The text below walks through data of patent US20260248938A1, “COMBINATION OF ANTI-CDH6 ANTIBODY-DRUG CONJUGATE AND HIF-2alpha INHIBITOR” (DAIICHI SANKYO COMPANY, LIMITED, priority 2023, published 2026).

Test [1] concerns Human kidney cancer cell line 786-O cells. The class given is in vivo. To be noted: 786-O subcutaneous xenograft, nude mice, ADC (1) 1 mg/kg i.v. on Day 0, belzutifan 0.3 mg/kg orally once daily, five times a week for 3 weeks. As for the experimental part:
Mouse: Six-week-old female BALB/c nude mice (The Jackson Laboratory Japan, Inc.) were subjected to an experiment.
Measurement and calculation expression: The long diameter and short diameter of each tumor were measured twice a week using electronic digital calipers (CD-15CX, Mitutoyo Corp.), and the volume of the tumor was then calculated. The following expression was used in the calculation.
The anti-CDH6 antibody-drug conjugate (1) was diluted with ABS buffer (10 mM acetate buffer (pH 5.5), 5% sorbitol), and the dilution was intravenously administered at a dose of 10 mL/kg to the tail of each mouse. Belzutifan was suspended in 10% dimethyl sulfoxide, 40% polyethylene glycol 300, 5% Tween-80, and 45% physiological saline, and the suspension was administered orally at a dose of 10 mL/kg.
Human kidney cancer cell line 786-O cells purchased from ATCC (American Type Culture Collection) were suspended in Matrigel Matrix, and the cell suspension was subcutaneously inoculated at a dose of 4×10^6 cells to the right flank region of each female nude mouse. […]
Tumor growth inhibition (TGI) is calculated according to the following expression.
Change from baseline (%) (percentage change of average tumor volume on Day 21 from an average tumor volume on Day 0 as a baseline) was calculated according to the following expression, and is shown in FIG. 15.

For test [2], the target named is T1, Topoisomerase I (Homo sapiens, UniProt P11387).
T1 sequence (P11387 1-765): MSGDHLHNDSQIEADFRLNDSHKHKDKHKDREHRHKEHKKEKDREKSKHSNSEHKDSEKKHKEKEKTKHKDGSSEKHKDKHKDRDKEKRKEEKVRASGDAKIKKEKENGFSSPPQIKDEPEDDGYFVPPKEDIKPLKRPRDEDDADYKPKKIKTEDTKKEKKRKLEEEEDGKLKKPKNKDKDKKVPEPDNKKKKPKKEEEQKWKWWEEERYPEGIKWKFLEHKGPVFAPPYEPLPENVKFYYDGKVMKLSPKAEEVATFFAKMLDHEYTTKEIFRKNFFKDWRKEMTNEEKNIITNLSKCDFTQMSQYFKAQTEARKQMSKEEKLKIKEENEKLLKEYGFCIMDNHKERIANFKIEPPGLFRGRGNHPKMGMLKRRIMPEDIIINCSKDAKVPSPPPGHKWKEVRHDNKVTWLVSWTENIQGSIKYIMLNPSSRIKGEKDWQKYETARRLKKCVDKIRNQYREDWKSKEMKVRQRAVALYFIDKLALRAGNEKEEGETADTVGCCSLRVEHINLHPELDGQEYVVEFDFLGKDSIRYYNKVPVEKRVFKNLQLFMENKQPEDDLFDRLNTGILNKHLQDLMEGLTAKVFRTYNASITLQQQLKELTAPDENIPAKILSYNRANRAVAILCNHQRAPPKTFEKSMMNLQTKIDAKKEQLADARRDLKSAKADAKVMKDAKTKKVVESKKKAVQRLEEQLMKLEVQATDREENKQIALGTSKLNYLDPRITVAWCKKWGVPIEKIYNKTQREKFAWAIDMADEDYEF
The conditions noted are these: Ogitani Y. et al., Clinical Cancer Research 2016; cited from earlier work.

Regarding `CS(=O)(=O)c1ccc(Oc2cc(F)cc(C#N)c2)c2c1[C@H](O)[C@H](F)[C@@H]2F` [Belzutifan, belzutifan], in test [1] (Day 21), the “Tumor growth inhibition (TGI)” value turned out to be 29%. Moreover, in test [1] (Day 21 vs Day 0), the “Change from baseline (%) (percentage change of average tumor volume on Day 21 from average tumor volume on Day 0)” value was 53%.

`CC[C@@]1(O)C(=O)OCc2c1cc1n(c2=O)Cc2c-1nc1cc(F)c(C)c3c1c2[C@@H](NC(=O)CO)CC3` [compound (A)]: the “Topoisomerase I inhibitory effect” value in test [2] is listed as “confirmed to have a topoisomerase I inhibitory effect”.
